{"source": "patent US20050113296A1", "about": "“Methods for identifying antimicrobial agents, the agents identified therewith and methods of using same” (priority 2001, published 2005)", "target": "T1, E. coli yfhC polypeptide (Escherichia coli, UniProt P68398)", "T1 construct": "made in house; negative controls used a pBAD-derived vector", "T1 sequence (P68398 whole entry)": "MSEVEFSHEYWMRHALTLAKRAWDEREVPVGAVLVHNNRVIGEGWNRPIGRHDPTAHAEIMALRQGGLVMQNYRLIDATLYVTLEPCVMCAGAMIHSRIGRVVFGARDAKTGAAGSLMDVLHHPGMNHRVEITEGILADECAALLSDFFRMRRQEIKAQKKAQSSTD", "experiment": "yfhC polypeptide deamination of a defined substrate, inosine monitored by HPLC of the digest", "assay_type": "biochemical", "conditions": "2 μg yfhC polypeptide (cell lysate), 20 μg stem loop or 8 μg tRNA^Arg2, 50 μl, 30 min", "protocol": "The experimental protocol consisted of two steps. First an in vitro reaction was conducted using a defined yfhC substrate and the yfhC polypeptide supplied as a lysate from an over-producing strain of bacteria. The reactions were then digested enzymatically to mononucleotides with a mixture of three enzymes (nuclease P1, snake venom phosphodiesterase and alkaline phosphatase and the resultant digest analyzed by HPLC to monitor for the appearance of inosine (the product of the yfhC polypeptide deamination reaction).\nIn this experiment, a series of reactions were run with a synthetic RNA corresponding to the following anticodon stem loop 17-mer of E. coli tRNA^Arg2, in both the linear and folded form (the anticodon is underlined):\nAll reactions were carried out with the indicated amounts of yfhC substrate and yfhC polypeptide (in the form of a cell lysate) in a final volume of 50 μl. For experiments employing refolded yfhC substrate, the substrate was first boiled and slowly cooled in refolding buffer (30 mM HEPES, pH 7.9, 150 mM NaCl, 10 mM Mg Cl2) prior to adding to the reaction mixture. […] The pellets were resuspended in 50 μl H2O, digested with a mixture of nuclease P1, snake venom phosphodiesterase 1 and alkaline phosphatase (all enzymes in excess) and analyzed by HPLC (Develosil C-30 column, 2 mm×250 mm; Nomura Chemical, Japan). […]"}
{"substance": "stem loop: synthetic RNA 17-mer corresponding to the anticodon stem loop of E. coli tRNA^Arg2, linear and refolded; yfhC substrate (CNCGGCNACGAACCGAG; RNA, backbone, methylation of C and the base at N not given here; n positions are unspecified nucleotides, further chemistry not fully specified)", "values": [{"measurement": "activity as yfhC substrate (inosine peak in HPLC elution profile)", "result": "greatest-activity"}]}
